Key:
[1] = test system: Human peripheral blood leukocytes; experiment: IgG production by human peripheral blood leukocytes (HPBL) in vitro; format: cell-based; conditions: for immune enhancement (in words): Examples II and Table I
Experimental: Human peripheral blood leukocytes were cultured in a standard tissue culture medium. Aliquots of these cultured cells (1,000,000 cells/ml medium) were cultured for 6 hours, and the specified amount of Formula II compound was added; the cells were then cultured for an additional 90 hours. Sheep red blood cells (SRBC) conditioned with class-specific (IgG) goat anti-human antiserum (1:400) for 2 hours; then guinea pig complement (2%) for 2 hours were conjugated to Protein A as described in detail in Radioimaging and Radioimmunotherapy, Eds. S. W. Burchiel and B. A. Rhodes, Elsevier Science Publishing; New York, 1983, pp. 125-127, incorporated herein by reference.
1. Concentration inhibiting nonspecific IgG production below normal production.

[2] = molecular target: T1, rat liver HMG-COA reductase (Rattus norvegicus, UniProt P51639); experiment: inhibition of rat liver HMG-CoA reductase activity; format: biochemical; conditions: read-out: IC50 (concentration for 50% inhibition of rat liver HMG-COA reductase activity); Table I
T1 construct: rat liver HMG-COA reductase activity; from tissue; host or cells: rat liver
T1 sequence (P51639 1-887): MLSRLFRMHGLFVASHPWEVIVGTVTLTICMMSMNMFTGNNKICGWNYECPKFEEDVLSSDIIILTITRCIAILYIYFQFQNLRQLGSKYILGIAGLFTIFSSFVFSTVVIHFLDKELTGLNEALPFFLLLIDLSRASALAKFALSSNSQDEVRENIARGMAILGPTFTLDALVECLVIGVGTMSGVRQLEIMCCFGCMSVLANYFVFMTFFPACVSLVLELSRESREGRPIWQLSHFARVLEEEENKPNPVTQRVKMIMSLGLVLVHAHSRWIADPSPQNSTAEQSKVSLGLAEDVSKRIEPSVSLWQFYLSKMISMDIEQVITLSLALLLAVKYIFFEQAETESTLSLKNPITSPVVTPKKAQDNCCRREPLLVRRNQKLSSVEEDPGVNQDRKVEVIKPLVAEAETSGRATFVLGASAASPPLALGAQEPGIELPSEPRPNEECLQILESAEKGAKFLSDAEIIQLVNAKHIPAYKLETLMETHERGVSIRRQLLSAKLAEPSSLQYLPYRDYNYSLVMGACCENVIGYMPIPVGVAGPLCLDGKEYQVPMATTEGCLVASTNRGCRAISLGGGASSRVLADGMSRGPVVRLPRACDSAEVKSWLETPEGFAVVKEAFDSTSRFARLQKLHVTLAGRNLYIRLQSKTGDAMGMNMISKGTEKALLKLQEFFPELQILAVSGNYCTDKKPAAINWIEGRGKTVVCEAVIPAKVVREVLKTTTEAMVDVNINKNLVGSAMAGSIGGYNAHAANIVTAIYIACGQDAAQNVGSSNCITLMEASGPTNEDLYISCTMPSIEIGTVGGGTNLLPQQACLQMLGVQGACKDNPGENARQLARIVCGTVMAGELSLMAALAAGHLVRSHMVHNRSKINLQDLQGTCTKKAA
Description: While a number of the compounds of the Formula I are known HMG-CoA reductase inhibitors, there is no apparent correlation between HMG-CoA reductase inhibitory activity and promotion of differentiation activity according to the invention. […] Accordingly, useful guidelines for selecting compounds having optimal differentiation-promoting activity according to the invention broadly comprise selecting compounds of the Formula I having the specified stereochemical configuration and an in vitro immunological activity as set forth in the in vitro assay of Example II, of at least about 3-fold.

[3] = test system: Canine glioma cells; experiment: cytotoxicity as simple survival (T50%); format: cell-based; conditions: Canis lupus familiaris, Glioma cell, read-out: T 50%
Experimental: (§1) Cytotoxicity was determined as a function of simple survival (T50 %), adherence (ADH50 %) and thymidine incorporation (I50%) of the cells.
(§2) Estimates of the 50% inhibitory concentrations of the various drugs tested on simple survival (T50%) and adherence (ADH50%) for canine glioma cells.

[4] = test system: Canine glioma cells; experiment: inhibition of thymidine incorporation (I50%); format: cell-based; conditions: Canis lupus familiaris, Glioma cell, read-out: I50%
Experimental: as §1
Estimates of the I50% of the various drugs tested on thymidine incorporation of canine glioma cells in culture.

[5] = test system: Canine glioma cells; experiment: inhibition of adherence (ADH50%); format: cell-based; conditions: Canis lupus familiaris, Glioma cell
Experimental: as §1, §2

In the case of `CC(C)c1nc(-c2ccccc2)n(-c2ccc(F)cc2)c1/C=C/[C@@H](O)C[C@H](O)CC(=O)O` [IIb], the “Inhibitory Concentration (concentration inhibiting nonspecific IgG production below normal production)” value ([1]; HPBL, additional 90 h culture) is reported as “none found” and the IC50 [2] is reported as 1350 nM.

With `CC(C)c1nc(-c2ccccc2)n(-c2ccc(F)cc2)c1/C=C/[C@@H](O)C[C@@H](O)CC(=O)O` [IId, reference compound] the activation at 0.1 µM ([1]; Homo sapiens, Leukocyte, 90 h, 100 nM, read-out: Stimulation of IgG Production) was 320%.

In the case of `CC[C@H](C)C(=O)O[C@H]1CCC=C2C=C[C@H](C)[C@H](CC[C@@H]3C[C@@H](O)CC(=O)O3)[C@H]21` [compactin, reference compound], the “immune enhancement (in words)” value [1] is reported as “no immune enhancement”, the IC50 ([3]; 24 h exposure) is reported as 500 nM and the IC50 ([3]; 72 h exposure) is reported as 200 nM. The IC50 ([3]; 96 h exposure) was 350 nM, the IC50 ([4]; 24 h exposure) was 100 nM and the IC50 ([4]; 48 h exposure) was 75 nM. It also gave an IC50 ([4]; 72 h exposure) of 30 nM, an IC50 ([4]; 96 h exposure) of 50 nM and an IC50 ([5]; 24 h exposure) of 50 nM. For the same compound, the IC50 ([5]; 72 h exposure) was 75 nM and the IC50 ([5]; 96 h exposure) was 75 nM.

With `CC[C@H](C)C(=O)O[C@H]1C[C@@H](C)C=C2C=C[C@H](C)[C@H](CC[C@@H]3C[C@@H](O)CC(=O)O3)[C@H]21` [lovastatin, reference compound] the “immune enhancement (in words)” value [1] was “no immune enhancement”.
